# How the values were obtained:
# [1] = Cytotoxicity against African green monkey Vero cells infected with eGPF-labeled DENV2 16681 assessed as reduction in cell viability measured after 3 days by ATPlite assay; assay type: toxicity, cell-based; conditions: chlorocebus sabaeus; for CC50: vero, 72 h; for CC50 at 72 h: Vero cells infected with eGFP-labeled DENV2 16681
# dengue virus type 2 = test: Antiviral activity against eGPF-labeled DENV2 16681 infected in African green monkey Vero cells measured after 3 days by fluorescence microscopic analysis; assay type: functional, cell-based
# [2] = Selectivity index, ratio of CC50 for African green monkey Vero cells infected with eGPF-labeled DENV2 16681 to EC50 for DENV2 16681 expressing eGPF infected in African green monkey Vero cells
SMILES,EC50 (dengue virus type 2),CC50 [1],Ratio CC50/EC50 [2],CC50 at 72 h [1]
"COc1cc(NC(C(=O)c2c[nH]c3cc(F)c(C)cc23)c2ccc(Cl)cc2OC)cc(S(C)(=O)=O)c1 (single isomer, unassigned; enantiomer 1)",13 nM,6800 nM,538,–
"COc1cc(NC(C(=O)c2c[nH]c3c(C)cc(OC(F)(F)F)cc23)c2ccc(Cl)cc2OC)cc(S(C)(=O)=O)c1 (single isomer, unassigned; enantiomer 2)",4.1 nM,9200 nM,22200,–
"COc1cc(NC(C(=O)c2c[nH]c3ccc(OC(F)(F)F)cc23)c2ccc(Cl)cc2OC)cc(S(C)(=O)=O)c1 (single isomer, unassigned; enantiomer 2)",3.8 nM,6200 nM,1480,–
COc1cc(NC(C(=O)c2c[nH]c3cc(F)ccc23)c2ccc(Cl)cc2OC)cc(S(C)(=O)=O)c1 (racemic),0.52 nM,–,11500,5500 nM
"COc1cc(NC(C(=O)c2c[nH]c3cc(F)ccc23)c2ccc(Cl)cc2OC)cc(S(C)(=O)=O)c1 (single isomer, unassigned; enantiomer 2)",12 nM,6500 nM,530,–
"COc1cc(NC(C(=O)c2c[nH]c3cc(OC)c(C)cc23)c2ccc(Cl)cc2OC)cc(S(C)(=O)=O)c1 (single isomer, unassigned; enantiomer 2)",36 nM,12000 nM,341,–
"COc1cc(NC(C(=O)c2c[nH]c3c(C)c(F)ccc23)c2ccc(Cl)cc2OC)cc(S(C)(=O)=O)c1 (single isomer, unassigned; enantiomer 2)",26 nM,7400 nM,285,–

# These reach a lower EC50 (dengue virus type 2). Values come first.
EC50 (dengue virus type 2),SMILES,CC50 [1],Ratio CC50/EC50 [2],CC50 at 72 h [1]
0.085 nM,COc1cc(NC(C(=O)c2c[nH]c3c(C)cc(OC(F)(F)F)cc23)c2ccc(Cl)cc2OC)cc(S(C)(=O)=O)c1 (stereo in doubt; 11A),2600 nM,30100,–
0.2 nM,"COc1cc(NC(C(=O)c2c[nH]c3cc(F)c(C)cc23)c2ccc(Cl)cc2OC)cc(S(C)(=O)=O)c1 (single isomer, unassigned; enantiomer 2)",3200 nM,18500,–
0.26 nM,"COc1cc(NC(C(=O)c2c[nH]c3c(C)c(F)ccc23)c2ccc(Cl)cc2OC)cc(S(C)(=O)=O)c1 (single isomer, unassigned; enantiomer 1)",–,22000,4800 nM
0.26 nM,"COc1cc(NC(C(=O)c2c[nH]c3cc(F)ccc23)c2ccc(Cl)cc2OC)cc(S(C)(=O)=O)c1 (single isomer, unassigned; enantiomer 1)",4300 nM,19700,–
0.27 nM,"COc1cc(NC(C(=O)c2c[nH]c3cc(OC)c(C)cc23)c2ccc(Cl)cc2OC)cc(S(C)(=O)=O)c1 (single isomer, unassigned)",4200 nM,16900,–
0.067 nM,"COc1cc(NC(C(=O)c2c[nH]c3ccc(OC(F)(F)F)cc23)c2ccc(Cl)cc2OC)cc(S(C)(=O)=O)c1 (single isomer, unassigned; enantiomer 1)",2900 nM,>37500,–

# — ChEMBL document CHEMBL3870354, “Viral Replication Inhibitors May Treat the Dengue Virus Infections” (ACS Med Chem Lett, 2017)
